Measured values as given in US9249127B2 (Orion Corporation, priority 2012, dated 2016).

Biological target: T1, alpha2A receptor (Homo sapiens, UniProt P08913)
T1 sequence (P08913 1-465): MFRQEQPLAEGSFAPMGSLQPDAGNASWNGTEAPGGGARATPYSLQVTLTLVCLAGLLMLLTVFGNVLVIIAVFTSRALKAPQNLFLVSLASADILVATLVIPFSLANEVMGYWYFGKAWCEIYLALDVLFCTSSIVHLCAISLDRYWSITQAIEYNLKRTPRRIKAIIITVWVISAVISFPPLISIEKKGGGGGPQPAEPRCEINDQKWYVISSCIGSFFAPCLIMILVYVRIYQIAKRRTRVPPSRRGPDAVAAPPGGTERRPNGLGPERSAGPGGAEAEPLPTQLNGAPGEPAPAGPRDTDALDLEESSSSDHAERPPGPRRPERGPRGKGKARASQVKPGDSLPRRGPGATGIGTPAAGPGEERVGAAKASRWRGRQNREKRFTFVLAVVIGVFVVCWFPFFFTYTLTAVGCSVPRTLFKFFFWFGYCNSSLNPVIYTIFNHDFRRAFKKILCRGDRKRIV
Assay: Alpha2A agonistic activity in vitro
Type: cell-based
Settings: in vitro

Compound | Alpha2A Intrinsic Activity
CC1Cc2c(Br)cccc2C(C)(C2=NCCN2)O1 (stereo not shown) [Example 31, 2-(5-Bromo-1,3-dimethylisochroman-1-yl)-4,5-dihydro-1H-imidazole] | 0.43
Cc1cccc2c1C[C@H](C)OC2C1=NCCN1 (stereo partly drawn) [Example 37, 2-((3S)-3,5-dimethylisochroman-1-yl)-4,5-dihydro-1H-imidazole] | 0.63
CCCC1Cc2c(Br)cccc2C(C2=NCCN2)O1 (stereo not shown) [Example 40, 2-(5-Bromo-3-propylisochroman-1-yl)-4,5-dihydro-1H-imidazole] | 0.31
CC(C)c1cccc2c1CCOC2C1=NCCN1 (stereo not shown) [Example 41, 2-(5-Isopropylisochroman-1-yl)-4,5-dihydro-1H-imidazole] | 0.27
CCc1cccc2c1C[C@@H](CC)OC2C1=NCCN1 (stereo partly drawn) [Example 47, 2-((3R)-3,5-diethylisochroman-1-yl)-4,5-dihydro-1H-imidazole] | 0.22
C[C@@H]1Cc2c(OC(F)(F)F)cccc2C(C2=NCCN2)O1 (stereo partly drawn) [Example 49, 2-((3R)-3-methyl-5-(trifluoromethoxy)isochroman-1-yl)-4,5-dihydro-1H-imidazole] | 0.35
CCOc1cccc2c1CCOC2C1=NCCN1 (stereo not shown) [Example 51, 2-(5-Ethoxyisochroman-1-yl)-4,5-dihydro-1H-imidazole] | 0.26
Cc1cccc2c1CC(CC(F)(F)F)OC2C1=NCCN1 (stereo not shown) [Example 52, 2-(5-Methyl-3-(2,2,2-trifluoroethyl)isochroman-1-yl)-4,5-dihydro-1H-imidazole] | 0.41
COc1cccc2c1C[C@H](C)OC2C1=NCCN1 (stereo partly drawn) [Example 53, 2-((3S)-5-methoxy-3-methylisochroman-1-yl)-4,5-dihydro-1H-imidazole] | 0.72
c1cc(-c2ccoc2)c2c(c1)C(C1=NCCN1)OCC2 (stereo not shown) [Example 54, 2-(5-(Furan-3-yl)isochroman-1-yl)-4,5-dihydro-1H-imidazole] | 0.16
CC#Cc1cccc2c1CCOC2C1=NCCN1 (stereo not shown) [Example 55, 2-(5-(Prop-1-yn-1-yl)isochroman-1-yl)-4,5-dihydro-1H-imidazole] | 0.80
NC(=O)c1cccc2c1CCOC2C1=NCCN1 (stereo not shown) [Example 56, 1-(4,5-Dihydro-1H-imidazol-2-yl)isochroman-5-carboxamide] | 0.11
c1cc2c3c(c1)C(C1=NCCN1)OCC3CCCC2 (stereo not shown) [Example 57, 2-(3,7,8,9,10,10a-Hexahydro-1H-cyclohepta[de]isochromen-3-yl)-4,5-dihydro-1H-imidazole] | 0.11
CC(O)c1cccc2c1CCOC2C1=NCCN1 (stereo not shown) [Example 58, 1-(1-(4,5-Dihydro-1H-imidazol-2-yl)isochroman-5-yl)ethanol] | 0.47
Cc1cc(Br)cc2c1CCOC2C1=NCCN1 (stereo not shown) [Example 60, 2-(7-Bromo-5-methylisochroman-1-yl)-4,5-dihydro-1H-imidazole] | 0.66
COc1cc(C)c2c(c1)C(C1=NCCN1)OCC2 (stereo not shown) [Example 61, 2-(7-Methoxy-5-methylisochroman-1-yl)-4,5-dihydro-1H-imidazole] | 0.81
Cc1cccc2c1CC(C)SC2C1=NCCN1 (stereo not shown) [Example 62, 2-(3,5-Dimethylisothiochroman-1-yl)-4,5-dihydro-1H-imidazole] | 0.77
CC1Cc2c(Br)cccc2C(C2=NCCN2)S1 (stereo not shown) [Example 63, 2-(5-Bromo-3-methylisothiochroman-1-yl)-4,5-dihydro-1H-imidazole] | 0.85
CC1(C2=NCCN2)SCCc2c(Br)cccc21 (stereo not shown) [Example 66, 2-(5-Bromo-1-methylisothiochroman-1-yl)-4,5-dihydro-1H-imidazole] | 0.43
CCC1Cc2c(Br)cc(Br)cc2C(C2=NCCN2)O1 (stereo not shown) [Example 67, 2-(5,7-Dibromo-3-ethylisochroman-1-yl)-4,5-dihydro-1H-imidazole] | 0.42
COc1cccc2c1CCOC2(C)C1=NCCN1 (stereo not shown) [Example 69, 2-(5-Methoxy-1-methylisochroman-1-yl)-4,5-dihydro-1H-imidazole] | 0.19
COc1cccc2c1CCSC2C1=NCCN1 (stereo not shown) [Example 70, 2-(5-Methoxyisothiochroman-1-yl)-4,5-dihydro-1H-imidazole] | 0.07

Same assay, conditions: in vitro; read-out: Alpha2A Agonism pEC50 (converted)

Compound | EC50
CC1Cc2c(Br)cccc2C(C)(C2=NCCN2)O1 (stereo not shown) [Example 31, 2-(5-Bromo-1,3-dimethylisochroman-1-yl)-4,5-dihydro-1H-imidazole] | 1260 nM
Cc1cccc2c1C[C@H](C)OC2C1=NCCN1 (stereo partly drawn) [Example 37, 2-((3S)-3,5-dimethylisochroman-1-yl)-4,5-dihydro-1H-imidazole] | 316 nM
CCCC1Cc2c(Br)cccc2C(C2=NCCN2)O1 (stereo not shown) [Example 40, 2-(5-Bromo-3-propylisochroman-1-yl)-4,5-dihydro-1H-imidazole] | 316 nM
CC(C)c1cccc2c1CCOC2C1=NCCN1 (stereo not shown) [Example 41, 2-(5-Isopropylisochroman-1-yl)-4,5-dihydro-1H-imidazole] | 251 nM
CCc1cccc2c1C[C@@H](CC)OC2C1=NCCN1 (stereo partly drawn) [Example 47, 2-((3R)-3,5-diethylisochroman-1-yl)-4,5-dihydro-1H-imidazole] | 2000 nM
C[C@@H]1Cc2c(OC(F)(F)F)cccc2C(C2=NCCN2)O1 (stereo partly drawn) [Example 49, 2-((3R)-3-methyl-5-(trifluoromethoxy)isochroman-1-yl)-4,5-dihydro-1H-imidazole] | 126 nM
CCOc1cccc2c1CCOC2C1=NCCN1 (stereo not shown) [Example 51, 2-(5-Ethoxyisochroman-1-yl)-4,5-dihydro-1H-imidazole] | 631 nM
Cc1cccc2c1CC(CC(F)(F)F)OC2C1=NCCN1 (stereo not shown) [Example 52, 2-(5-Methyl-3-(2,2,2-trifluoroethyl)isochroman-1-yl)-4,5-dihydro-1H-imidazole] | 100 nM
COc1cccc2c1C[C@H](C)OC2C1=NCCN1 (stereo partly drawn) [Example 53, 2-((3S)-5-methoxy-3-methylisochroman-1-yl)-4,5-dihydro-1H-imidazole] | 316 nM
c1cc(-c2ccoc2)c2c(c1)C(C1=NCCN1)OCC2 (stereo not shown) [Example 54, 2-(5-(Furan-3-yl)isochroman-1-yl)-4,5-dihydro-1H-imidazole] | 1000 nM
CC#Cc1cccc2c1CCOC2C1=NCCN1 (stereo not shown) [Example 55, 2-(5-(Prop-1-yn-1-yl)isochroman-1-yl)-4,5-dihydro-1H-imidazole] | 126 nM
NC(=O)c1cccc2c1CCOC2C1=NCCN1 (stereo not shown) [Example 56, 1-(4,5-Dihydro-1H-imidazol-2-yl)isochroman-5-carboxamide] | 3160 nM
c1cc2c3c(c1)C(C1=NCCN1)OCC3CCCC2 (stereo not shown) [Example 57, 2-(3,7,8,9,10,10a-Hexahydro-1H-cyclohepta[de]isochromen-3-yl)-4,5-dihydro-1H-imidazole] | 2000 nM
Cc1cc(Br)cc2c1CCOC2C1=NCCN1 (stereo not shown) [Example 60, 2-(7-Bromo-5-methylisochroman-1-yl)-4,5-dihydro-1H-imidazole] | 126 nM
CC1Cc2c(Br)cccc2C(C2=NCCN2)S1 (stereo not shown) [Example 63, 2-(5-Bromo-3-methylisothiochroman-1-yl)-4,5-dihydro-1H-imidazole] | 3160 nM
CC1(C2=NCCN2)SCCc2c(Br)cccc21 (stereo not shown) [Example 66, 2-(5-Bromo-1-methylisothiochroman-1-yl)-4,5-dihydro-1H-imidazole] | 1580 nM
CCC1Cc2c(Br)cc(Br)cc2C(C2=NCCN2)O1 (stereo not shown) [Example 67, 2-(5,7-Dibromo-3-ethylisochroman-1-yl)-4,5-dihydro-1H-imidazole] | 1000 nM
COc1cccc2c1CCSC2C1=NCCN1 (stereo not shown) [Example 70, 2-(5-Methoxyisothiochroman-1-yl)-4,5-dihydro-1H-imidazole] | 2000 nM
